The results in this text go back to US20070191333A1, “Antibacterial agents” (Warner Lambert Company LLC, priority 2003, published 2007).

The structures appear in SMILES notation. ≈ marks a conversion by molar mass, not a printed value.

The first assay relates to E. coli 2026. Kind of assay: Antibacterial microtitration MIC, E. coli 2026. Type of assay: cell-based. As to conditions: Escherichia coli, 2026, Gram Negative Bacteria; strain 2026; read-out: Minimum Inhibitory Concentrations E. coli 2026. The procedure: (§1) Test A—Antibacterial Assays The compounds of the present invention were tested against an assortment of Gram-negative and Gram-positive organisms using standard microtitration techniques (Cohen et. al., Antimicrob., 1985; 28:766; Heifetz, et. al., Antimicrob., 1974; 6:124).
In the case of `Cc1c(N2CC[C@H]([C@H](N)CC#N)C2)c(F)cc2c(=O)n(N)c(=O)n(C3CC3)c12` (racemic) [drawing 389], the MIC was found to be 32 µg/mL (≈ 82.8 µM).
For the molecule `Cc1c(N2CC[C@@H]([C@@H](N)CC#N)C2)c(F)cc2c(=O)n(N)c(=O)n(C3CC3)c12` (single isomer, unassigned) [drawing 390], the MIC was 8 µg/mL (≈ 20.7 µM).
On to `Cc1c(N2CC[C@@H]([C@H](C)NCCC#N)C2)c(F)cc2c(=O)n(N)c(=O)n(C3CC3)c12` (single isomer, unassigned) [drawing 394], for which the MIC came out at 4 µg/mL (≈ 9.65 µM).
On the same count and under the same terms, next, `COc1c(N2CC[C@@H]([C@H](C)NCCC#N)C2)c(F)cc2c(=O)n(N)c(=O)n(C3CC3)c12` (single isomer, unassigned) [drawing 400]: 64 µg/mL (≈ 149 µM); `COc1c(N2CC[C@@H]([C@H](C)NCCC#N)C2)c(F)cc2c(=O)[nH]c(=O)n(C3CC3)c12` (single isomer, unassigned) [drawing 401]: 64 µg/mL (≈ 154 µM).
Still for that read-out and setting: the result for `Cc1c(N2CCC(C(N)CC#N)C2)c(F)cc2c(=O)n(N)c(=O)n(C3CC3)c12` (stereo not drawn) [drawing 388] reads 8 µg/mL (≈ 20.7 µM).
Consider `COc1c(N2CCC(C(N)CC#N)C2)c(F)cc2c(=O)n(N)c(=O)n(C3CC3)c12` (stereo not drawn) [drawing 393], for which the MIC came out at 64 µg/mL (≈ 159 µM).
On to `Cc1c(N2CCC(C(N)C(C)(C)C#N)C2)c(F)cc2c(=O)n(N)c(=O)n(C3CC3)c12` (stereo not drawn) [drawing 402], for which the MIC is 64 µg/mL (≈ 154 µM).

Staying with this assay, now noted: Escherichia coli; Gram Negative Bacteria; strain 2026; read-out: Minimum Inhibitory Concentrations E. coli 2026.
As for `Cc1c(N2C[C@H](CNCCC#N)[C@@H](F)C2)c(F)cc2c(=O)n(N)c(=O)n(C3CC3)c12` (racemic) [drawing 397], the MIC was 32 µg/mL (≈ 76.5 µM).
As to `Cc1c(N2C[C@@H](CNCCC#N)[C@H](C)C2)c(F)cc2c(=O)n(N)c(=O)n(C3CC3)c12` (stereo in doubt), the MIC was determined as 8 µg/mL (≈ 19.3 µM).
Consider `Cc1c(N2C[C@H](CNCCC#N)[C@@H](C)C2)c(F)cc2c(=O)n(N)c(=O)n(C3CC3)c12` (stereo in doubt), for which the MIC was 8 µg/mL (≈ 19.3 µM).
Still for that read-out and setting: the result for `COc1c(N2C[C@@H]3CCC(NCCC#N)[C@@H]3C2)c(F)cc2c(=O)n(N)c(=O)n(C3CC3)c12` (stereo partly drawn) [drawing 398] reads 64 µg/mL (≈ 145 µM).
Consider `Cc1c(N2CC[C@@H](C(NCCC#N)c3ncco3)C2)c(F)cc2c(=O)n(N)c(=O)n(C3CC3)c12` (stereo partly drawn) [drawing 399], for which the MIC came to 16 µg/mL (≈ 34.2 µM).

Still in this assay, the particulars now being: Gram Negative Bacteria; strain 2026.
For the molecule `Cc1c(N2CC[C@@H]([C@@H](N)CC#N)C2)c(F)cc2c(=O)[nH]c(=O)n(C3CC3)c12` (single isomer, unassigned) [drawing 391], the “Minimum Inhibitory Concentrations E. coli 2026” value was 32 µg/mL.
Consider `Cc1c(N2CC[C@@H]([C@@H](N)CC#N)C2)c(F)cc2c(=O)[nH]c(=O)n(C3CC3)c12` (single isomer, unassigned) [drawing 392], for which the “Minimum Inhibitory Concentrations E. coli 2026” value worked out at 8 µg/mL.

Another assay has as its system M. catarrhalis BC-3531. Kind of assay: Antibacterial microtitration MIC, M. catarrhalis BC-3531. Type of assay: cell-based. The following applies: Gram Negative Bacteria; strain BC-3531. The protocol: as §1
In the case of `Cc1c(N2CC[C@@H]([C@@H](N)CC#N)C2)c(F)cc2c(=O)[nH]c(=O)n(C3CC3)c12` (single isomer, unassigned) [drawing 392], the “Minimum Inhibitory Concentrations M. catarrhalis BC-3531” value came to 4 µg/mL.
As to `Cc1c(N2CCC(C(N)C(C)(C)C#N)C2)c(F)cc2c(=O)n(N)c(=O)n(C3CC3)c12` (stereo not drawn) [drawing 402], the “Minimum Inhibitory Concentrations M. catarrhalis BC-3531” value was 5.25 µg/mL.

The assay is the same for the next values; noted with them: Moraxella catarrhalis, BC3531, Gram Negative Bacteria; strain BC-3531; read-out: Minimum Inhibitory Concentrations M. catarrhalis BC-3531.
For the molecule `Cc1c(N2CC[C@H]([C@H](N)CC#N)C2)c(F)cc2c(=O)n(N)c(=O)n(C3CC3)c12` (racemic) [drawing 389], the MIC was determined as 16 µg/mL (≈ 41.4 µM).
Turning to `Cc1c(N2C[C@H](CNCCC#N)[C@@H](F)C2)c(F)cc2c(=O)n(N)c(=O)n(C3CC3)c12` (racemic) [drawing 397], the MIC was determined as 16 µg/mL (≈ 38.2 µM).
Same read-out and setting: next, `Cc1c(N2CC[C@@H]([C@@H](N)CC#N)C2)c(F)cc2c(=O)n(N)c(=O)n(C3CC3)c12` (single isomer, unassigned) [drawing 390]: 2 µg/mL (≈ 5.18 µM).
On the same count and under the same terms, the result for `Cc1c(N2CC[C@@H]([C@@H](N)CC#N)C2)c(F)cc2c(=O)[nH]c(=O)n(C3CC3)c12` (single isomer, unassigned) [drawing 391] reads 4 µg/mL (≈ 10.8 µM); that for `Cc1c(N2CC[C@@H]([C@H](C)NCCC#N)C2)c(F)cc2c(=O)n(N)c(=O)n(C3CC3)c12` (single isomer, unassigned) [drawing 394], 1 µg/mL (≈ 2.41 µM); that for `COc1c(N2CC[C@@H]([C@H](C)NCCC#N)C2)c(F)cc2c(=O)n(N)c(=O)n(C3CC3)c12` (single isomer, unassigned) [drawing 400], 16 µg/mL (≈ 37.2 µM).
On the same count and under the same terms, next, `COc1c(N2CC[C@@H]([C@H](C)NCCC#N)C2)c(F)cc2c(=O)[nH]c(=O)n(C3CC3)c12` (single isomer, unassigned) [drawing 401]: 64 µg/mL (≈ 154 µM).
For `Cc1c(N2C[C@@H](CNCCC#N)[C@H](C)C2)c(F)cc2c(=O)n(N)c(=O)n(C3CC3)c12` (stereo in doubt), the MIC was found to be 4 µg/mL (≈ 9.65 µM).
Still for that read-out and setting: the result for `Cc1c(N2C[C@H](CNCCC#N)[C@@H](C)C2)c(F)cc2c(=O)n(N)c(=O)n(C3CC3)c12` (stereo in doubt) reads 4 µg/mL (≈ 9.65 µM).
Turning to `Cc1c(N2CCC(C(N)CC#N)C2)c(F)cc2c(=O)n(N)c(=O)n(C3CC3)c12` (stereo not drawn) [drawing 388], the MIC was 0.5 µg/mL (≈ 1.29 µM).
Turning to `COc1c(N2CCC(C(N)CC#N)C2)c(F)cc2c(=O)n(N)c(=O)n(C3CC3)c12` (stereo not drawn) [drawing 393], the MIC worked out at 16 µg/mL (≈ 39.8 µM).
With `COc1c(N2C[C@@H]3CCC(NCCC#N)[C@@H]3C2)c(F)cc2c(=O)n(N)c(=O)n(C3CC3)c12` (stereo partly drawn) [drawing 398], the MIC stood at 64 µg/mL (≈ 145 µM).
In the case of `Cc1c(N2CC[C@@H](C(NCCC#N)c3ncco3)C2)c(F)cc2c(=O)n(N)c(=O)n(C3CC3)c12` (stereo partly drawn) [drawing 399], the MIC is 16 µg/mL (≈ 34.2 µM).

Another assay has as its system H. influenzae HI-3542. The experiment in a line: Antibacterial microtitration MIC, H. influenzae HI-3542. The format is cell-based. The following applies: Gram Negative Bacteria; strain HI-3542. The procedure:
as §1
For `Cc1c(N2CC[C@@H]([C@@H](N)CC#N)C2)c(F)cc2c(=O)[nH]c(=O)n(C3CC3)c12` (single isomer, unassigned) [drawing 392], the “Minimum Inhibitory Concentrations H. influenzae HI-3542” value came out at 2 µg/mL.

The same assay, now with this note: Haemophilus influenzae, HI3542, Gram Negative Bacteria; strain HI-3542; read-out: Minimum Inhibitory Concentrations H. influenzae HI-3542.
As to `Cc1c(N2CC[C@H]([C@H](N)CC#N)C2)c(F)cc2c(=O)n(N)c(=O)n(C3CC3)c12` (racemic) [drawing 389], the MIC is 4 µg/mL (≈ 10.4 µM).
With `Cc1c(N2C[C@H](CNCCC#N)[C@@H](F)C2)c(F)cc2c(=O)n(N)c(=O)n(C3CC3)c12` (racemic) [drawing 397], the MIC stood at 8 µg/mL (≈ 19.1 µM).
In the case of `Cc1c(N2CC[C@@H]([C@@H](N)CC#N)C2)c(F)cc2c(=O)n(N)c(=O)n(C3CC3)c12` (single isomer, unassigned) [drawing 390], the MIC was 1 µg/mL (≈ 2.59 µM).
As for `Cc1c(N2CC[C@@H]([C@@H](N)CC#N)C2)c(F)cc2c(=O)[nH]c(=O)n(C3CC3)c12` (single isomer, unassigned) [drawing 391], the MIC stood at 4 µg/mL (≈ 10.8 µM).
As for `Cc1c(N2CC[C@@H]([C@H](C)NCCC#N)C2)c(F)cc2c(=O)n(N)c(=O)n(C3CC3)c12` (single isomer, unassigned) [drawing 394], the MIC was determined as 0.5 µg/mL (≈ 1.21 µM).
On to `COc1c(N2CC[C@@H]([C@H](C)NCCC#N)C2)c(F)cc2c(=O)n(N)c(=O)n(C3CC3)c12` (single isomer, unassigned) [drawing 400], for which the MIC came to 16 µg/mL (≈ 37.2 µM).
On the same count and under the same terms, the result for `COc1c(N2CC[C@@H]([C@H](C)NCCC#N)C2)c(F)cc2c(=O)[nH]c(=O)n(C3CC3)c12` (single isomer, unassigned) [drawing 401] reads 64 µg/mL (≈ 154 µM).
On the same count and under the same terms, next, `Cc1c(N2C[C@@H](CNCCC#N)[C@H](C)C2)c(F)cc2c(=O)n(N)c(=O)n(C3CC3)c12` (stereo in doubt): 2 µg/mL (≈ 4.83 µM); `Cc1c(N2C[C@H](CNCCC#N)[C@@H](C)C2)c(F)cc2c(=O)n(N)c(=O)n(C3CC3)c12` (stereo in doubt): 4 µg/mL (≈ 9.65 µM); `Cc1c(N2CCC(C(N)CC#N)C2)c(F)cc2c(=O)n(N)c(=O)n(C3CC3)c12` (stereo not drawn) [drawing 388]: 2 µg/mL (≈ 5.18 µM).
On the same count and under the same terms, next, `COc1c(N2CCC(C(N)CC#N)C2)c(F)cc2c(=O)n(N)c(=O)n(C3CC3)c12` (stereo not drawn) [drawing 393]: 8 µg/mL (≈ 19.9 µM).
Consider `COc1c(N2C[C@@H]3CCC(NCCC#N)[C@@H]3C2)c(F)cc2c(=O)n(N)c(=O)n(C3CC3)c12` (stereo partly drawn) [drawing 398], for which the MIC came to 8 µg/mL (≈ 18.1 µM).
As to `Cc1c(N2CC[C@@H](C(NCCC#N)c3ncco3)C2)c(F)cc2c(=O)n(N)c(=O)n(C3CC3)c12` (stereo partly drawn) [drawing 399], the MIC is 4 µg/mL (≈ 8.56 µM).
In the case of `Cc1c(N2CCC(C(N)C(C)(C)C#N)C2)c(F)cc2c(=O)n(N)c(=O)n(C3CC3)c12` (stereo not drawn) [drawing 402], the MIC was determined as 32 µg/mL (≈ 77.2 µM).
